# Key:
# [1] = system: isolated rat soleus muscles; assay: Recovery of nerve-stimulated force in isolated rat soleus muscles at elevated extracellular Mg2+ (3.5 mM); type: cell-based; details: muscle at elevated Mg2+ (3.5 mM); FIG. 2B
# Description: (§1) Experiments were performed using rat soleus muscles from either young (4-wk-old) or adult Wistar rats (12-14-week-old). Animal handling, killing and isolation of muscle is described elsewhere^26 All experiments were performed using normal Krebs-Ringer bicarbonate solution^26 (NKR). In solutions with elevated Mg^2+, MgCl2 was added to NKR-solution causing minor increases in osmolarity and ionic strength. In solutions with elevated K^+, 4 mM NaCl was replaced by 4 mM KCl in the NKR.
# In all contraction experiments, isometric force production was determined and force produced during contractions was quantified by measuring the integral of the force response (AUC). Stimulation and force recordings have been described elsewhere^26. […] In these latter experiments, extracellular recordings of action potentials (M-waves) could be measured without temporal overlap with stimulation artefacts. […]
# The next series of experiments determined whether the compounds that recovered nerve-stimulated force in the presence of tubocurarine could also recover nerve-stimulated force at elevated extracellular Mg^2+.
# [2] = system: isolated rat soleus muscles; assay: Recovery of nerve-stimulated force in isolated rat soleus muscles exposed to sub-maximal tubocurarine; type: cell-based
# Description: as §1
# In all contraction experiments, isometric force production was determined and force produced during contractions was quantified by measuring the integral of the force response (AUC). Stimulation and force recordings have been described elsewhere^26. […] In these latter experiments, extracellular recordings of action potentials (M-waves) could be measured without temporal overlap with stimulation artefacts.
# To initially confirm that inhibition of ClC-1 ion channels can be used to recover contractile force in muscle with reduced neuromuscular transmission, isolated nerve-muscle preparations were first exposed to either tubocurarine (FIG. 2A) or elevated Mg^2+ (FIG. 2B) and then a specific ClC-1 inhibitor (9-AC) was added. […]
# [3] = Pharmacokinetic analysis of a single I.P. dose in rats; type: in vivo; details: rat, ip, single I.P. dose 10 mg/kg, Sprague-Dawley rats, plasma
# Description: This part of the study was performed by Pipeline Biotech A/S (Spørring, Denmark). […] Plasma concentrations (free and bound) were determined by OnTarget Chemistry (Uppsala, Sweden, Project No.: PB243-001).
# Before conducting in vivo experiments with animal models of myasthenia gravis, some pharmacokinetic details were obtained for C8 in response to one-bolus I.P. injection.
# [4] = system: rats injected with MAB35 monoclonal antibody; assay: Rotarod running performance in passive immunization model of myasthenia gravis (MAB35); type: in vivo, rat; details: compared to sham
# Description: FIG. 10. […] Prior to I.P. injection of MAB35 the animals had been familiarized to the rotarod over three training sessions distributed over two days. […] After this treatment performance was monitored every second hour. *Indicates significant different as evaluated using student t-test.
# (§2) In both series of experiments, running performance was tested on a rotarod using a protocol where the rod was accelerated gradually over a 5 min period, and the running time and covered distance before falling off the rod were measured.
# In experiments with MAB35, animals were first familiarized with the rotarod over two consecutive days and then injected I.P. with MAB35. After injection, rotarod performance was then again monitored regularly over the consecutive two days. […] A considerable number of animals, however, became moribund failing to walk and they had altered ventilation (rapid) and pronounced ptosis. These animals were not included in experiments.
# In the last series of experiments, myasthenia gravis was mimicked in rats by inducing an immunological reaction against the motor endplate of muscle fibers using monoclonal antibody against the nicotinic ACh receptor in muscle fibers. Again the animals had been familiarized to the rotarod before the MAB35 injection. […] From FIG. 10 it can be seen that upon injection sham treatment the performance further declined.
# [5] = system: soleus muscles; assay: Mg2+ concentration required to depress nerve-stimulated force by 50% (Kd,Mg2+), combination treatments; type: cell-based, rat; details: C8 combined with 3,4-diaminopyridine
# Description: FIG. 6. […] Muscles from 4-week-old rats were stimulated to contract by activating the motor nerve with short duration pulses in field stimulation. Muscles contracted every 10 min for 2 s in response to 30 Hz stimulation. Four different experimental conditions were used. […] C) similar to A) but this muscle had been pre-incubated with 3,4-AP. […] The force integral (AUC) was determined at each extracellular Mg^2+ concentration. AUC was plotted against Mg^2+ concentration and the data was fitted to a sigmoidal function (FIG. 6E). This provided the extracellular Mg^2+ concentration that was required to reduce the nerve-stimulated force to 50% (Mg50) under the four different conditions (see Table 5).
# While the use of tubocurarine mimics conditions with reduced neuromuscular transmission due to post-synaptic dysfunction (myasthenia gravis, neuromuscular blockade), the experiments with elevated extracellular Mg^2+ mimics conditions with pre-synaptic dysfunction akin to a range of neuromuscular disorders including Lambert Eaton syndrome^26, motor neuron disorders^6-9 and polyneuropathy^18, 19. […] Based on this it was determined whether recovery of nerve-stimulated force at elevated extracellular Mg^2+ with ClC-1 inhibiting compounds could be added to force recovery with 3,4-AP. […] To quantify the effect of compounds on Mg^2+ sensitivity the force at the different Mg^2+ concentrations was determined. […]
# [6] = system: rats injected with tubocurarine; assay: Rotarod running performance of rats after I.P. tubocurarine (myasthenia like phenotype); type: in vivo, rat; details: C8 20 mg/kg I.P. 2 hrs before tubocurarine 0.13 mg/kg I.P.; tested 21 minutes after tubocurarine; sham around 2%
# Description: FIG. 9. […] A) illustrates the design of the experiments. Prior to Day One the animals had been familiarized to the rotarod in three training sessions distributed over two days.
# as §2
# Experiments with tubocurarine were carried out over two days, and on each day the effect of tubocurarine on running performance was tested. On the first day only tubocurarine was injected. […] On the second day, the animals were first allowed to run on the rotarod, and all animals performed normally. […] The allocation of the animals into the two groups (C8 or sham) was random and unknown to the experimenter (blinded experimental design).
# In the first series of in vivo experiments, myasthenia gravis was simply mimicked by I.P. injection of tubocurarine (0.13 mg/kg) in animals that had been familiarized to running on the rotarod. On the first of two consecutive days, tubocurarine was injected I.P. and the running performance of the animal was tested 21 minutes after this injection. On the second day of experimentation, the animals first performed a test run to ensure that they were no longer affected by the tubocurarine injected the day before. […]
# [7] = system: rat soleus muscles; type: cell-based; details: 10 and 25 μM, compared to control conditions; 1 μM μ-conotoxin GiiiB
# [8] = system: isolated human muscles; type: cell-based; details: 150 μM C8; elevated K+ and TTX
Compound,recovery of force and M-wave signal [1],"recovery of force and M-wave signal ([2]; muscle exposed to tubocurarine, FIG. 2A)",AUC(0-t) [3] [µg·h/mL],C0 [3] [ng/mL],Cmax [3] [ng/mL],AUC(0-inf) ([3]; read-out: AUC 0-inf_obs) [µg·h/mL],half-life ([3]; read-out: t½ (converted)) [h],rotarod running performance after injection ([4]; 20 mg/kg C8 I.P.),rotarod running performance after injection ([4]; 30 mg/kg C8 I.P.),effect of combination on recovery of neuromuscular transmission [5],increase in running distance on second day compared to first day [6],EPP amplitude [7],contractile force [8],"nerve-stimulated force after addition of compound (in words) ([2]; 50 μM added after 40 min in tubocurarine, FIG. 3A)"
"O=C(O)c1c2ccccc2cc2ccccc12 [Compound 9-AC, reference compound]",marked recovery of both force and M-wave signal,marked recovery of both force and M-wave signal,,,,,,,,,,,,
"C[C@H](Oc1ccc(Br)cc1)C(=O)O [Compound C8, (2S)-2-(4-bromophenoxy)propanoic acid]",,,204,24500,44600,205,3.7,decline was reduced,clear recovery of performance,unexpected synergistic effect,around 150%,significantly larger EPPs,markedly recovery,recovered markedly

# From patent US10934244B2, “Compounds for use in treating neuromuscular disorders” (NMD PHARMA A/S, priority 2015, dated 2021)
